EC50 data for 38 compounds are collected here from patent US10730863B2, “Bridged bicyclic compounds as farnesoid X receptor modulators” (BRISTOL-MYERS SQUIBB COMPANY, priority 2017, dated 2020).

Chain of FXR (Q96RI1 262-486): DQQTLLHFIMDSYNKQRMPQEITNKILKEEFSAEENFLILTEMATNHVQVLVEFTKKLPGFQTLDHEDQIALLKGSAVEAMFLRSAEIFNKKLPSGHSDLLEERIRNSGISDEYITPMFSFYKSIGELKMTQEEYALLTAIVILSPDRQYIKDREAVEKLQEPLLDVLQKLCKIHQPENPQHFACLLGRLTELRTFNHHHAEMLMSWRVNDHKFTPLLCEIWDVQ

The experiment concerns the target FXR (Homo sapiens (Human), UniProt Q96RI1). In words: FXR EC50 (FXR agonist activity reported with each example). It is filed as cell-based.
With `O=C(O)c1cc(OC2COC2)c2cc(OCC34CCC(OCc5c(-c6c(Cl)cncc6Cl)noc5C5CC5)(CC3)CC4)cc(F)c2n1` [Example 312, 6-((4-((5-cyclopropyl-3-(3,5-dichloropyridin-4-yl)isoxazol-4-yl)methoxy)bicyclo[2.2.2]octan-1-yl)methoxy)-8-fluoro-4-(oxetan-3-yloxy)quinoline-2-carboxylic acid], a half-maximal response (EC50) required 0.047 µM. This lies in the double-digit nanomolar range.

`CCOc1cc(C(=O)O)nc2cc(F)c(OCC34CCC(OCc5c(-c6c(Cl)cncc6Cl)noc5C5CC5)(CC3)CC4)cc12` [Example 313, 6-((4-((5-cyclopropyl-3-(3,5-dichloropyridin-4-yl)isoxazol-4-yl)methoxy)bicyclo[2.2.2]octan-1-yl)methoxy)-4-ethoxy-7-fluoroquinoline-2-carboxylic acid]: the EC50 (in general, the concentration giving half of the maximal effect) worked out at 0.048 µM.

`O=C(O)c1cc(OCC2CC2)c2cc(OCC34CCC(OCc5c(-c6c(Cl)cncc6Cl)noc5C5CC5)(CC3)CC4)c(F)cc2n1` [Example 314, 6-((4-((5-cyclopropyl-3-(3,5-dichloropyridin-4-yl)isoxazol-4-yl)methoxy)bicyclo[2.2.2]octan-1-yl)methoxy)-4-(cyclopropylmethoxy)-7-fluoroquinoline-2-carboxylic acid] came in with a concentration giving a half-maximal response (EC50) of 0.067 µM. This EC50 and that of the compound before are within 1.5-fold of each other.

As for `Cn1nc(OCC23CCC(OCc4c(-c5c(Cl)cncc5Cl)noc4C4CC4)(CC2)CC3)cc1C(=O)O` [Example 315], the 50% effective concentration (EC50) was 0.34 µM. This EC50 is about 5.1-fold higher than that of the compound before.

`CCn1nc(OCC23CCC(OCc4c(-c5c(Cl)cncc5Cl)noc4C4CC4)(CC2)CC3)cc1C(=O)O` [Example 316] yielded an EC50 of 0.064 µM.

`O=C(O)c1sc(OCC23CCC(OCc4c(-c5c(Cl)cncc5Cl)noc4C4CC4)(CC2)CC3)nc1C(F)(F)F` [Example 317] showed an EC50 of 0.21 µM. This EC50 is about 3.3-fold higher than that of the compound before.

In turn, `Cc1nc(OCC23CCC(OCc4c(-c5c(Cl)cncc5Cl)noc4C4CC4)(CC2)CC3)sc1C(=O)O` [Example 318] came in with a concentration giving a half-maximal response (EC50) of 0.18 µM.

As for `O=C(O)c1ccc(OCC23CCC(OCc4c(-c5c(Cl)cncc5Cl)noc4C4CC4)(CC2)CC3)cn1` [Example 319], the concentration for a half-maximal effect (EC50) came to 0.27 µM.

`O=C(O)c1ccc(OCC23CCC(OCc4c(-c5c(Cl)cncc5Cl)noc4C4CC4)(CC2)CC3)c(C(F)(F)F)c1` [Example 320] returned a 50% effective concentration (EC50) of 0.41 µM.

Take `COc1cc(OCC23CCC(OCc4c(-c5c(Cl)cncc5Cl)noc4C4CC4)(CC2)CC3)cc(C(=O)O)c1` [Example 321, 3-((4-((5-cyclopropyl-3-(3,5-dichloropyridin-4-yl)isoxazol-4-yl)methoxy)bicyclo[2.2.2]octan-1-yl)methoxy)-5-methoxybenzoic acid]: a half-maximal effect (EC50) was put at 0.007 µM.

The compound `Cc1cc(OCC23CCC(OCc4c(-c5c(Cl)cncc5Cl)noc4C4CC4)(CC2)CC3)cc(C(=O)O)c1` [Example 322] registered an EC50 of 0.007 µM.

`COc1cc(OCC23CCC(OCc4c(-c5c(Cl)cncc5Cl)noc4C4CC4)(CC2)CC3)nc(C(=O)O)c1` [Example 323] registered an EC50 of 0.074 µM.

In the case of `O=C(O)c1cc(C2CC2)c2cc(OCC34CCC(OCc5c(-c6c(Cl)cncc6Cl)noc5C5CC5)(CC3)CC4)ccc2n1` [Example 324, 4-cyclopropyl-6-((4-((5-cyclopropyl-3-(3,5-dichloropyridin-4-yl)isoxazol-4-yl)methoxy)bicyclo[2.2.2]octan-1-yl)methoxy)quinoline-2-carboxylic acid], the midpoint of the response, the EC50, lay at 0.022 µM. This EC50 lies about 3.4-fold lower than the previous one.

`Cc1cc(C(=O)O)nc2ccc(OCC34CCC(OCc5c(-c6c(Cl)cncc6Cl)noc5C5CC5)(CC3)CC4)cc12` [Example 325] gave a concentration for a half-maximal effect (EC50) of 0.052 µM.

In turn, `CC(C)Oc1cc(OCC23CCC(OCc4c(-c5c(Cl)cncc5Cl)noc4C4CC4)(CC2)CC3)cc(C(=O)O)c1` [Example 326] registered a concentration for a half-maximal effect (EC50) of 0.017 µM.

As to `O=C(O)c1cc(O)c2cc(OCC34CCC(OCc5c(-c6c(Cl)cncc6Cl)noc5C5CC5)(CC3)CC4)ccc2n1` [Example 327, 6-((4-((5-cyclopropyl-3-(3,5-dichloropyridin-4-yl)isoxazol-4-yl)methoxy)bicyclo[2.2.2]octan-1-yl)methoxy)-4-hydroxyquinoline-2-carboxylic acid], the response was half-maximal at 0.17 µM (EC50). Against the preceding compound, the EC50 is about 10-fold higher.

Compound `CC(C)Oc1cc(C(=O)O)nc2ccc(OCC34CCC(OCc5c(-c6c(Cl)cncc6Cl)noc5C5CC5)(CC3)CC4)cc12` [Example 328, 6-((4-((5-cyclopropyl-3-(3,5-dichloropyridin-4-yl)isoxazol-4-yl)methoxy)bicyclo[2.2.2]octan-1-yl)methoxy)-4-isopropoxyquinoline-2-carboxylic acid] yielded an EC50 of 0.015 µM.

Turning to `COC1CN(c2cc(C(=O)O)nc3ccc(OCC45CCC(OCc6c(-c7c(Cl)cncc7Cl)noc6C6CC6)(CC4)CC5)cc23)C1` [Example 329, 6-((4-((5-cyclopropyl-3-(3,5-dichloropyridin-4-yl)isoxazol-4-yl)methoxy)bicyclo[2.2.2]octan-1-yl)methoxy)-4-(3-methoxyazetidin-1-yl)quinoline-2-carboxylic acid], it took 1.4 µM to reach a half-maximal effect (EC50). This EC50 lies about 93-fold higher than the previous one.

`CN(C)c1cc(C(=O)O)nc2ccc(OCC34CCC(OCc5c(-c6c(Cl)cncc6Cl)noc5C5CC5)(CC3)CC4)cc12` [Example 330] had a concentration for a half-maximal effect (EC50) of 1.5 µM.

`O=C(O)c1cc(OC2CC2)c2cc(OCC34CCC(OCc5c(-c6c(Cl)cncc6Cl)noc5C5CC5)(CC3)CC4)ccc2n1` [Example 331, 4-cyclopropoxy-6-((4-((5-cyclopropyl-3-(3,5-dichloropyridin-4-yl)isoxazol-4-yl)methoxy)bicyclo[2.2.2]octan-1-yl)methoxy)quinoline-2-carboxylic acid] yielded an EC50 of 0.023 µM.

Consider `CS(=O)(=O)c1cc(C(=O)O)nc2ccc(OCC34CCC(OCc5c(-c6c(Cl)cncc6Cl)noc5C5CC5)(CC3)CC4)cc12` [Example 332, 6-((4-((5-cyclopropyl-3-(3,5-dichloropyridin-4-yl)isoxazol-4-yl)methoxy)bicyclo[2.2.2]octan-1-yl)methoxy)-4-(methylsulfonyl)quinoline-2-carboxylic acid], for which it took 0.83 µM to reach a half-maximal effect (EC50). Against the preceding compound, the EC50 is about 36-fold higher.

In turn, `CC(C)Oc1cc(OCC23CCC(OCc4c(-c5c(Cl)cncc5Cl)noc4C4CC4)(CC2)CC3)cnc1C(=O)O` [Example 334, 5-((4-((5-cyclopropyl-3-(3,5-dichloropyridin-4-yl)isoxazol-4-yl)methoxy)bicyclo[2.2.2]octan-1-yl)methoxy)-3-isopropoxypicolinic acid] came in with an EC50 of 0.021 µM.

For `COc1cc(OCC23CCC(OCc4c(-c5c(Cl)cncc5Cl)noc4C4CC4)(CC2)CC3)cnc1C(=O)O` [Example 335, 5-((4-((5-cyclopropyl-3-(3,5-dichloropyridin-4-yl)isoxazol-4-yl)methoxy)bicyclo[2.2.2]octan-1-yl)methoxy)-3-methoxypicolinic acid], the midpoint of the response, the EC50, lay at 0.17 µM.

The compound `COCCOc1cc(OCC23CCC(OCc4c(-c5c(Cl)cncc5Cl)noc4C4CC4)(CC2)CC3)cnc1C(=O)O` [Example 336] displayed a concentration for a half-maximal effect (EC50) of 0.16 µM.

Compound `O=C(O)c1ncc(OCC23CCC(OCc4c(-c5c(Cl)cncc5Cl)noc4C4CC4)(CC2)CC3)cc1OCC1CC1` [Example 337] had a concentration for a half-maximal effect (EC50) of 0.027 µM.

`CCCc1cc(C(=O)O)nc2ccc(OCC34CCC(OCc5c(-c6c(Cl)cncc6Cl)noc5C5CC5)(CC3)CC4)cc12` [Example 338, 6-((4-((5-cyclopropyl-3-(3,5-dichloropyridin-4-yl)isoxazol-4-yl)methoxy)bicyclo[2.2.2]octan-1-yl)methoxy)-4-propylquinoline-2-carboxylic acid] displayed a concentration for a half-maximal effect (EC50) of 0.017 µM.

Take `O=C(O)c1ncc(OCC23CCC(OCc4c(-c5c(Cl)cncc5Cl)noc4C4CC4)(CC2)CC3)cc1OC1CCC1` [Example 339]: the midpoint of the response, the EC50, lay at 0.028 µM.

In the case of `O=C(O)c1ncc(OCC23CCC(OCc4c(-c5c(Cl)cncc5Cl)noc4C4CC4)(CC2)CC3)cc1OC1CC1` [Example 340], the EC50 came out at 0.046 µM. Compared with the last compound, the EC50 is about 1.6-fold higher.

`CC(Oc1ccc(OCC23CCC(OCc4c(-c5c(Cl)cncc5Cl)noc4C4CC4)(CC2)CC3)cc1)C(=O)O` (centres unmarked) [Example 341] had an EC50 of 1.5 µM. This EC50 lies about 33-fold higher than the previous one.

As to `COc1ccc(C(=O)O)c2ccc(OCC34CCC(OCc5c(-c6c(Cl)cncc6Cl)noc5C5CC5)(CC3)CC4)nc12` [Example 342], a half-maximal effect (EC50) was put at 0.033 µM. Against the preceding compound, the EC50 is about 45-fold lower.

Compound `O=C(O)c1cccc2nc(OCC34CCC(OCc5c(-c6c(Cl)cncc6Cl)noc5C5CC5)(CC3)CC4)ccc12` [Example 343] came in with an EC50 of 0.075 µM.

Take `O=C(O)c1cc(OC2CCC2)c2cc(OCC34CCC(OCc5c(-c6c(Cl)cncc6Cl)noc5C5CC5)(CC3)CC4)ccc2n1` [Example 344]: the concentration for a half-maximal effect (EC50) was 0.017 µM. This EC50 is about 4.4-fold lower than that of the compound before.

`CCOc1cc(C(=O)O)nc2ccc(OCC34CCC(OCc5c(-c6c(Cl)cncc6Cl)noc5C5CC5)(CC3)CC4)cc12` [Example 345] yielded an EC50 of 0.014 µM.

In the case of `O=C(O)c1cc(OCC2CC2)c2cc(OCC34CCC(OCc5c(-c6c(Cl)cncc6Cl)noc5C5CC5)(CC3)CC4)ccc2n1` [Example 346], it took 0.018 µM to reach a half-maximal effect (EC50).

As to `CCc1cc(C(=O)O)nc2ccc(OCC34CCC(OCc5c(-c6c(Cl)cncc6Cl)noc5C5CC5)(CC3)CC4)cc12` [Example 347], the EC50 turned out to be 0.024 µM.

Compound `Cc1cc(OCC23CCC(OCc4c(-c5c(Cl)cncc5Cl)noc4C4CC4)(CC2)CC3)cnc1C(=O)O` [Example 348, 5-((4-((5-cyclopropyl-3-(3,5-dichloropyridin-4-yl)isoxazol-4-yl)methoxy)bicyclo[2.2.2]octan-1-yl)methoxy)-3-methylpicolinic acid] displayed a half-maximal effective concentration (EC50) of 0.059 µM.

For the compound `O=C(O)c1ccc(OC2CCC2)c2nc(OCC34CCC(OCc5c(-c6c(Cl)cncc6Cl)noc5C5CC5)(CC3)CC4)ccc12` [Example 349, 8-cyclobutoxy-2-((4-((5-cyclopropyl-3-(3,5-dichloropyridin-4-yl)isoxazol-4-yl)methoxy)bicyclo[2.2.2]octan-1-yl)methoxy)quinoline-5-carboxylic acid], a half-maximal response (EC50) required 0.13 µM. Against the preceding compound, the EC50 is about 2.2-fold higher.

As to `COc1cncc(Cl)c1-c1noc(C2CC2)c1COC12CCC(COc3cc(OC)c4cc(C(=O)O)ccc4n3)(CC1)CC2` [Example 350, 2-((4-((3-(3-chloro-5-methoxypyridin-4-yl)-5-cyclopropylisoxazol-4-yl)methoxy)bicyclo[2.2.2]octan-1-yl)methoxy)-4-methoxyquinoline-6-carboxylic acid], it took 0.89 µM to reach a half-maximal effect (EC50).
